From patent US20260200928A1, “THERAPEUTIC COMPOUNDS” (Sanofi, priority 2022, published 2026)

target: T1, human IL-17A (Homo sapiens, UniProt Q16552); experiment: IL-17A AlphaLISA competition assay (block of IL-17A binding to its receptor IL-17RA); conditions: mean IC50 (n≥2), block of IL-17A binding to IL-17RA
T1 construct: purchased R&D Systems 7955-IL/CF
T1 sequence (Q16552 24-155): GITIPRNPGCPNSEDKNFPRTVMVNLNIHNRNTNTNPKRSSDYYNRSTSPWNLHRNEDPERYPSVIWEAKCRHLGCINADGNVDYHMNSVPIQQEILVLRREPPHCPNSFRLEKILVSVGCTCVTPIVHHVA
Description: The ability of the compounds to block binding of IL-17A to its receptor, IL-17RA, was analysed in a competition assay using AlphaLISA technology (Perkin Elmer). The assay is a bead based AlphaLISA where the IL-17RA is captured on the acceptor bead via an Fc tag and IL-17A is captured on the streptavidin donor bead via a biotinylated anti-IL17A antibody.
Assay buffer was prepared by adding 0.05% Tween-20 (v/v) and 0.1% BSA to Phosphate Buffered Saline (PBS). The assay was carried out in 384-well white low volume plates (Perkin Elmer #6008359). 10 μL of a 7.5 nM stock of human recombinant IL-17A (R&D Systems 7955-IL/CF) diluted in assay buffer was dispensed into the assay plate and compounds or DMSO vehicle control were added in a volume of 75 nL using an acoustic dispenser (Beckman). The compounds were pre-incubated with the IL-17A for 30 min at room temperature prior to addition of 5 μL of a 5 nM stock of human recombinant IL-17RA/Fc chimera (R&D Systems 177-IR-100) diluted in assay buffer. The IL-17A was incubated with the receptor for a further 90 minutes at room temperature before addition of 5 μL of a mixture of anti-human Fc IgG acceptor beads (75 μg/mL, Perkin Elmer AL1030) and anti-IL-17A biotin conjugated antibody (5 nM, Abcam, #ab155575) in assay buffer. After a further 30 min incubation at room temperature, 5 μL of streptavidin donor beads (75 μg/mL, Perkin Elmer 6760002S) were added and the plate was incubated for 3 h in the dark.
The AlphaLisa signal was measured using the PheraSTAR plate reader (BMG). Data were analysed using GeneData Screener and fitted to a 4-parameter logistic equation. The IC50 values were calculated using the DMSO vehicle as the negative control and a high concentration (4 μM) of a reference IL-17A inhibitor as the positive control. All compounds were analysed at least in duplicate (n≥2).

Compound | IC50
COCC(c1ccnc(NC(=O)[C@@H](NC(=O)c2nccn2C(C)C)[C@H]2CC[C@H](C)CC2)c1)N1C[C@@H](C(F)(F)F)NC1=O (single isomer, unassigned) [Example 115] | 77 nM
[2H]C([2H])([2H])C([2H])([2H])n1ccc(C(=O)N[C@H](C(=O)Nc2cc([C@@H](COC)N3C[C@@H](C(F)(F)F)NC3=O)ccn2)C2CCC(F)(F)CC2)n1 [Example 190, N-((S)-1-(4,4-difluorocyclohexyl)-2-((4-((S)-2-methoxy-1-((S)-2-oxo-4-(trifluoromethyl)imidazolidin-1-yl)ethyl)pyridin-2-yl)amino)-2-oxoethyl)-1-(ethyl-d5)-1H-pyrazole-3-carboxamide] | 816 nM
CC(C)(C)OCC(NC(=O)c1nonc1C1CC1)C(=O)Nc1cc(CN2C[C@@H](C(F)(F)F)NC2=O)ccn1 (stereo partly drawn) [Example 82, N-(3-(tert-butoxy)-1-oxo-1-((4-(((S)-2-oxo-4-(trifluoromethyl)imidazolidin-1-yl)methyl)pyridin-2-yl)amino)propan-2-yl)-4-cyclopropyl-1,2,5-oxadiazole-3-carboxamide] | 1170 nM
CC(C)n1nccc1C(=O)N[C@H](C(=O)Nc1cc(C(NC(=O)CCC(F)(F)F)C2CC2)ccn1)C1CCC(F)(F)CC1 (stereo partly drawn) [Example 110, N-((1S)-2-((4-(cyclopropyl(4,4,4-trifluorobutanamido)methyl)pyridin-2-yl)amino)-1-(4,4-difluorocyclohexyl)-2-oxoethyl)-1-isopropyl-1H-pyrazole-5-carboxamide] | 30 nM
COCC(NC(=O)CCC(F)(F)F)c1ccnc(NC(=O)[C@@H](NC(=O)c2nonc2C2CC2)C2CCC(F)(F)CC2)c1 (single isomer, unassigned) [Example 133] | 73 nM
Cc1nonc1C(=O)N[C@@H](COC(C)(C)C(F)(F)F)C(=O)Nc1cc(CN2C[C@@H](C(F)(F)F)NC2=O)ccn1 [Example 273, 4-methyl-N—((S)-1-oxo-1-((4-(((S)-2-oxo-4-(trifluoromethyl)-imidazolidin-1-yl)methyl)pyridin-2-yl)amino)-3-((1,1,1-trifluoro-2-methylpropan-2-yl)oxy)propan-2-yl)-1,2,5-oxadiazole-3-carboxamide] | 403 nM
CCc1oncc1C(=O)N[C@H](C(=O)Nc1cc(C[C@H]2C[C@@H](C(F)(F)F)NC2=O)ccn1)C1CCC(F)(F)CC1 [Example 218, N-((S)-1-(4,4-difluorocyclohexyl)-2-oxo-2-((4-(((3S,5S)-2-oxo-5-(trifluoromethyl)pyrrolidin-3-yl)methyl)pyridin-2-yl)amino)ethyl)-5-ethylisoxazole-4-carboxamide] | 158 nM
CCc1nonc1C(=O)N[C@H](C(=O)Nc1cc(C(COC)N2C[C@@H](C(F)(F)F)NC2=O)ccn1)[C@H]1CC[C@H](C)CC1 (single isomer, unassigned) [Example 88] | 4 nM
Cn1nccc1C(=O)N[C@H](C(=O)Nc1cc(CC(=O)NCCC(F)(F)F)ccn1)C(C1CC1)C1CC1 [Example 31, (S)—N-(1,1-dicyclopropyl-3-oxo-3-((4-(2-oxo-2-((3,3,3-trifluoro-propyl)amino)ethyl)pyridin-2-yl)amino)propan-2-yl)-1-methyl-1H-pyrazole-5-carboxamide] | 5060 nM
COC[C@H](c1ccnc(NC(=O)[C@H](COC(C)(C)C(F)(F)F)NC(=O)c2nonc2C2CC2)c1)N1C[C@@H](C(F)(F)F)NC1=O [Example 269, 4-cyclopropyl-N-((S)-1-((4-((S)-2-methoxy-1-((S)-2-oxo-4-(trifluoromethyl)imidazolidin-1-yl)ethyl)pyridin-2-yl)amino)-1-oxo-3-((1,1,1-trifluoro-2-methylpropan-2-yl)oxy)propan-2-yl)-1,2,5-oxadiazole-3-carboxamide] | 10 nM
CCn1nccc1C(=O)N[C@H](C(=O)Nc1cc([C@@H](COC)N2C[C@@H](C(F)(F)F)NC2=O)ccn1)C1CCC(Cl)CC1 (stereo partly drawn) [Example 310, N-((1S)-1-(4-chlorocyclohexyl)-2-((4-((S)-2-methoxy-1-((S)-2-oxo-4-(trifluoromethyl)imidazolidin-1-yl)ethyl)pyridin-2-yl)amino)-2-oxoethyl)-1-ethyl-1H-pyrazole-5-carboxamide] | 71 nM
CC(C)n1nccc1C(=O)N[C@H](C(=O)Nc1cc(OC2CCNC2=O)ccn1)[C@H]1CC[C@H](C)CC1 (stereo partly drawn) [Example 119, 1-isopropyl-N-((1S)-1-((1r,4S)-4-methylcyclohexyl)-2-oxo-2-((4-((2-oxopyrrolidin-3-yl)oxy)pyridin-2-yl)amino)ethyl)-1H-pyrazole-5-carboxamide] | 3990 nM
CCc1nonc1C(=O)N[C@H](C(=O)Nc1cc(CN2C[C@@H](C(F)(F)F)NC2=O)ccn1)[C@@H](C)OC(C)(C)C [Example 129, N-((2S,3R)-3-(tert-butoxy)-1-oxo-1-((4-(((S)-2-oxo-4-(trifluoromethyl)-imidazolidin-1-yl)methyl)-pyridin-2-yl)amino)butan-2-yl)-4-ethyl-1,2,5-oxa-diazole-3-carboxamide] | 533 nM
COCC(NC(=O)CCC(F)(F)F)c1ccnc(NC(=O)C(NC(=O)c2ccnn2C(C)C)C2CCC(C)CC2)c1 [Example 246, 1-isopropyl-N-((1S)-2-((4-(2-methoxy-1-(4,4,4-trifluorobutanamido)ethyl)pyridin-2-yl)amino)-1-((1r,4S)-4-methylcyclohexyl)-2-oxoethyl)-1H-pyrazole-5-carboxamide] | 72 nM
CCc1nonc1C(=O)N[C@H](C(=O)Nc1cc(CN2C[C@@H](C(F)(F)F)NC2=O)ccn1)[C@H]1CC[C@H](F)CC1 (single isomer, unassigned) [Example 290] | 160 nM
COC[C@H](c1ccnc(NC(=O)[C@@H](NC(=O)c2ccnn2C(C)C)C2CCC(Cl)CC2)c1)N1C[C@@H](C(F)(F)F)NC1=O (stereo partly drawn) [Example 312, N-((1S)-1-(4-chlorocyclohexyl)-2-((4-((S)-2-methoxy-1-((S)-2-oxo-4-(trifluoromethyl)imidazolidin-1-yl)ethyl)pyridin-2-yl)amino)-2-oxoethyl)-1-isopropyl-1H-pyrazole-5-carboxamide] | 121 nM
CCc1nocc1C(=O)N[C@H](C(=O)Nc1cc(C(C)(C)N2C[C@@H](C(F)(F)F)NC2=O)ccn1)C1CCC(F)(F)CC1 [Example 173, N-((S)-1-(4,4-difluorocyclohexyl)-2-oxo-2-((4-(2-((S)-2-oxo-4-(trifluoromethyl)imidazolidin-1-yl)propan-2-yl)pyridin-2-yl)amino)ethyl)-3-ethylisoxazole-4-carboxamide] | 187 nM
Cn1nccc1C(=O)NC(C(=O)Nc1cc(CN2CC(C(F)(F)F)NC2=O)ccn1)C1CCC(F)CC1 [Example 294, N-((S)-1-((1r,4S)-4-fluorocyclohexyl)-2-oxo-2-((4-(((S)-2-oxo-4-(trifluoromethyl)imidazolidin-1-yl)methyl)pyridin-2-yl)amino)ethyl)-1-methyl-1H-pyrazole-5-carboxamide] | 374 nM
CCn1nccc1C(=O)N[C@H](C(=O)Nc1cc(C(NC(=O)CCC(F)(F)F)C2CC2)ccn1)C1CCC(F)(F)CC1 (stereo partly drawn) [Example 108, N-((1S)-2-((4-(cyclopropyl(4,4,4-trifluorobutanamido)methyl)pyridin-2-yl)amino)-1-(4,4-difluorocyclohexyl)-2-oxoethyl)-1-ethyl-1H-pyrazole-5-carboxamide] | 33 nM
COCC(c1ccnc(NC(=O)C(NC(=O)C(F)(F)c2ccc(OC)nc2)C2CCC(C)CC2)c1)N1CC(C(F)(F)F)NC1=O (single isomer, unassigned) [Example 252] | 49 nM
O=C(N[C@H](C(=O)Nc1cc(CN2C[C@@H](C(F)(F)F)NC2=O)ccn1)C(C1CC1)C1CC1)c1nonc1C1CC1 [Example 16, 4-cyclopropyl-N-((S)-1,1-dicyclopropyl-3-oxo-3-((4-(((S)-2-oxo-4-(trifluoromethyl)imidazolidin-1-yl)methyl)pyridin-2-yl)amino)propan-2-yl)-1,2,5-oxadiazole-3-carboxamide] | 157 nM
CC(C)n1nccc1C(=O)N[C@H](C(=O)Nc1cc(CN2C[C@@H](C(F)(F)F)NC2=O)ccn1)C(C1CC1)C1CC1 [Example 17, N-((S)-1,1-dicyclopropyl-3-oxo-3-((4-(((S)-2-oxo-4-(trifluoromethyl)imidazolidin-1-yl)methyl)pyridin-2-yl)amino)propan-2-yl)-1-isopropyl-1H-pyrazole-5-carboxamide] | 92 nM
CC[C@H](c1ccnc(NC(=O)[C@@H](NC(=O)c2nonc2C)C2CCC(F)(F)CC2)c1)N1C[C@@H](C(F)(F)F)NC1=O [Example 211, N-((S)-1-(4,4-difluorocyclohexyl)-2-oxo-2-((4-((R)-1-((S)-2-oxo-4-(trifluoromethyl)imidazolidin-1-yl)propyl)pyridin-2-yl)amino)ethyl)-4-methyl-1,2,5-oxadiazole-3-carboxamide] | 33 nM
